Assay results reported in article PMC11974928 (bioRxiv, 2025).

Test system: GL261 cells
Experiment: Orthotopic GL261 allograft survival
Type: in vivo, mouse
Conditions: C57BL/6, 25 mg/kg 3x weekly, compared to vehicle

## CCN1CCN(Cc2ccc(Nc3ncc(F)c(-c4cc(F)c5nc(C)n(C(C)C)c5c4)n3)nc2)CC1 [Abemaciclib]
  overall survival of glioma-bearing mice: effective
